The values below come from ChEMBL document CHEMBL5154767, “Discovery of dual-target ligands binding to beta2-adrenoceptor and cysteinyl-leukotriene receptor for the potential treatment of asthma from natural products derived DNA-encoded library” (Eur J Med Chem, 2022).

Structures are written as SMILES. Active and inactive are the calls of the source. The rule behind the calls is not given here.

The test system of experiment [1] is Mus musculus. The experiment is described as follows: Anti-asthmatic activity against ovalbumin-induced asthmatic mouse model assessed as decrease in IL-13 level in BALF administered orally once daily for 7 days by ELISA. It is filed as functional, organism-based. The note with it: dose 10-20 mg/kg, route po, time 7.0 day, DDE = dose-dependent effect. On the technique in general: An ELISA detects its analyte on a solid surface through an enzyme-linked reagent.

Experiment [2] deals with T1, Uracil nucleotide/cysteinyl leukotriene receptor (Homo sapiens, UniProt Q13304).
Description: Binding affinity to immobilized Halo tag-fused CysLT receptor (unknown origin) expressed in Escherichia coli BL21 (DE3) assessed as association rate constant by receptor chromatography
For experiment [3], the target named is T2, Beta-2 adrenergic receptor (Homo sapiens, UniProt P07550). The experiment is described as follows: Binding affinity to immobilized Halo tag-fused beta2 adrenoceptor (unknown origin) expressed in Escherichia coli BL21 (DE3) assessed as association rate constant by receptor chromatography.
Target sequence in this assay (P07550 whole entry, looked up, the tested form may be a part): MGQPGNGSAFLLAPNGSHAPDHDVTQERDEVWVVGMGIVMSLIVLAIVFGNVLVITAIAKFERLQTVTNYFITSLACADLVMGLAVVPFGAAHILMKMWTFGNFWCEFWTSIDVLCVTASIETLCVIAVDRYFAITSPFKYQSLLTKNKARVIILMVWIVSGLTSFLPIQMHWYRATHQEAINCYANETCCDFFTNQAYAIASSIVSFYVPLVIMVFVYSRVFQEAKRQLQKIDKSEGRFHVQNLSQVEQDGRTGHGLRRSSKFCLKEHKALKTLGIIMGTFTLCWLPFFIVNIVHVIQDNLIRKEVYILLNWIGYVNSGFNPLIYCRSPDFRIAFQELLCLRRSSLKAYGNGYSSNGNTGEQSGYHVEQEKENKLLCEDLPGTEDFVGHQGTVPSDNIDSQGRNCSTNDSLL
Experiment [4] deals with T2, Beta-2 adrenergic receptor. The experiment is described as follows: Binding affinity to immobilized Halo tag-fused beta2 adrenoceptor (unknown origin) expressed in Escherichia coli BL21 (DE3) by receptor chromatography.
Target sequence in this assay (P07550 whole entry, looked up, the tested form may be a part): as above
In experiment [5] the test system is Mus musculus. Put plainly: Decrease in CysLT receptor expression in bronchus in ovalbumin-induced asthmatic mouse model administered orally once daily for 7 days by Western blot analysis. It is filed as functional. The note with it: dose 10-20 mg/kg, route po, time 7.0 day, DDE = dose-dependent effect. (In western blotting, separated proteins are transferred to a membrane and probed.)

The test system of experiment [6] is Mus musculus. Put plainly: Anti-asthmatic activity against ovalbumin-induced asthmatic mouse model assessed as decrease in IgE level in serum administered orally once daily for 7 days by ELISA. It is filed as functional, organism-based. The note with it: dose 10-20 mg/kg, route po, time 7.0 day, DDE = dose-dependent effect.
Experiment [7] deals with T2, Beta-2 adrenergic receptor. The experiment is described as follows: Binding affinity to immobilized Halo tag-fused beta2 adrenoceptor (unknown origin) expressed in Escherichia coli BL21 (DE3) assessed as dissociation rate constant by receptor chromatography.
Target sequence in this assay (P07550 whole entry, the tested form may be a part): as the sequence (P07550 whole entry, looked up, the tested form may be a part) above
Experiment [8] relates to Mus musculus. Put plainly: Anti-asthmatic activity against ovalbumin-induced asthmatic mouse model assessed as decrease in IL-4 level in BALF administered orally once daily for 7 days by ELISA. The experiment is classed as functional, organism-based. The note with it: dose 10-20 mg/kg, route po, time 7.0 day, DDE = dose-dependent effect.
Experiment [9] has as its system Mus musculus. Put plainly: Increase in beta2 adrenoceptor expression in bronchus in ovalbumin-induced asthmatic mouse model administered orally once daily for 7 days by Western blot analysis. The experiment is classed as functional. The note with it: dose 10-20 mg/kg, route po, time 7.0 day, DDE = dose-dependent effect.
In experiment [10] the target is T1, Uracil nucleotide/cysteinyl leukotriene receptor. The experiment is described as follows: Binding affinity to immobilized Halo tag-fused CysLT receptor (unknown origin) expressed in Escherichia coli BL21 (DE3) assessed as dissociation rate constant by receptor chromatography.
For experiment [11], the system named is Mus musculus. Put plainly: Anti-asthmatic activity against ovalbumin-induced asthmatic mouse model assessed as infiltration of inflammatory cells in the perivascular and peribronchiolar region of lungs at 10 to 20 mg/kg, po administered once daily for 7 days by H and E staining based light microscopic analysis. It is filed as functional, organism-based. The settings on record: dose 10-20 mg/kg, time 7.0 day.

Experiment [12] has as its target T1, Uracil nucleotide/cysteinyl leukotriene receptor. The source holds these as a separate data set.
Description: Binding affinity to immobilized Halo tag-fused CysLT receptor (unknown origin) expressed in Escherichia coli BL21 (DE3) assessed as retention time by chromatography
Experiment [13] addresses T2, Beta-2 adrenergic receptor. Put plainly: Binding affinity to immobilized Halo tag-fused beta2 adrenoceptor (unknown origin) expressed in Escherichia coli BL21 (DE3) assessed as retention time by chromatography.
Target sequence in this assay (P07550 whole entry, looked up, the tested form may be a part): as above
The test system of experiment [14] is Mus musculus. The experiment is described as follows: Anti-asthmatic activity against ovalbumin-induced asthmatic mouse model assessed as infiltration of inflammatory cells in the perivascular and peribronchiolar region of lungs at 20 mg/kg, po administered once daily for 7 days by H and E staining based light microscopic analysis. It is filed as functional, organism-based. The settings on record: time 7.0 day.

In experiment [15] the test system is Mus musculus. The experiment is described as follows: Anti-asthmatic activity against ovalbumin-induced asthmatic mouse model assessed as infiltration of inflammatory cells in the perivascular and peribronchiolar region of lungs at 2.6 mg/kg, po administered once daily for 7 days by H and E staining based light microscopic analysis. It is filed as functional, organism-based. The settings on record: time 7.0 day.

The subject of experiment [16] is Mus musculus. The experiment is described as follows: Anti-asthmatic activity against ovalbumin-induced asthmatic mouse model assessed as decrease in IL-4 level in BALF at 2.6 mg/kg, po administered once daily for 7 days by ELISA. It is filed as functional, organism-based. The settings on record: time 7.0 day.
The test system of experiment [17] is Mus musculus. Put plainly: Increase in beta2 adrenoceptor expression in bronchus in ovalbumin-induced asthmatic mouse model at 2.6 mg/kg, po administered once daily for 7 days by Western blot analysis. The experiment is classed as functional, organism-based. The note with it: time 7.0 day.
Experiment [18] relates to Mus musculus. Put plainly: Anti-asthmatic activity against ovalbumin-induced asthmatic mouse model assessed as decrease in IL-5 level in BALF at 2.6 mg/kg, po administered once daily for 7 days by ELISA. The settings on record: time 7.0 day. The experiment is classed as functional, organism-based.
Experiment [19] has as its system Mus musculus. Put plainly: Anti-asthmatic activity against ovalbumin-induced asthmatic mouse model assessed as decrease in IgE level in serum at 2.6 mg/kg, po administered once daily for 7 days by ELISA. It is filed as functional, organism-based. The settings on record: time 7.0 day.

T1 sequence (Q13304 whole entry, the tested form may be a part): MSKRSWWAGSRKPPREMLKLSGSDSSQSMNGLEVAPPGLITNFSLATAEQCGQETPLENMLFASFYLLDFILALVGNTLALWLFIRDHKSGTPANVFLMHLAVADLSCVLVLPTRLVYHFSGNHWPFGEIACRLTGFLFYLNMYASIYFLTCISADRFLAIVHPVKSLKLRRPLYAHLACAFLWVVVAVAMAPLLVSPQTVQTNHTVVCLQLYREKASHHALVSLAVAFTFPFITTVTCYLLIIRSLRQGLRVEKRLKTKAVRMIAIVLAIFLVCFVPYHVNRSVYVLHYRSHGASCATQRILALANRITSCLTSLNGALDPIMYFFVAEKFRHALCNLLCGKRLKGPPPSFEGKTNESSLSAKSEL

Consider `CC1(C)[C@@H](O)CC[C@]2(C)[C@H]3C(=O)C=C4[C@@H]5C[C@@](C)(C(=O)NCCc6ccc(O)cc6)CC[C@]5(C)CC[C@@]4(C)[C@]3(C)CC[C@@H]12`, for which the Activity result in the experiment with Mus musculus [1], in the experiment with Mus musculus [6], in the experiment on Mus musculus [8] and in the experiment on Mus musculus [9] was “Dde” in each case. The Ka in experiment [2] is 4.85 10^5/M/s; in experiment [3] it was 4.94 10^5/M/s. The K in [4] is 6.57 10^4/M. The inhibition result in the experiment on Mus musculus [5] is “Dde”. Also, the Kd in [7] was determined as 7.52 s⁻¹; in experiment [10] it was 17.2 s⁻¹. The result in the experiment on Mus musculus [11] was Active.

`CC(c1cc2ccccc2s1)N(O)C(N)=O` (stereo unspecified): the Retention time in [12] worked out at 3.5 min.

Turning to `CNC(C)Cc1ccccc1OC` (stereo unspecified) [METHOXYPHENAMINE], the Ka in experiment [3] is 1.93 10^5/M/s. The K in experiment [4] is 0.5 10^4/M. Further, the Kd in [7] was determined as 0.98 s⁻¹. The Retention time in [13] is 3.6 min.

As to `CC(C)(O)c1ccccc1CC[C@@H](SCC1(CC(=O)[O-])CC1)c1cccc(/C=C/c2ccc3ccc(Cl)cc3n2)c1.[Na+]` [MONTELUKAST SODIUM], the Ka in experiment [2] is 5.18 10^5/M/s. The Kd in experiment [10] came to 12.6 s⁻¹. This compound also gave a Retention time in experiment [12] of 8.7 min.

Turning to `CC1(C)[C@@H](O)CC[C@]2(C)[C@H]3C(=O)C=C4[C@@H]5C[C@@](C)(C(=O)O)CC[C@]5(C)CC[C@@]4(C)[C@]3(C)CC[C@@H]12`, the outcome in the experiment on Mus musculus [14] was Active.

Consider `CN(C)C(=O)Oc1cc(OC(=O)N(C)C)cc(C(O)CNC(C)(C)C)c1` (stereo unspecified), for which the outcome in the experiment on Mus musculus [15], in the experiment with Mus musculus [16], with Mus musculus [17], in the experiment with Mus musculus [18] and in the experiment with Mus musculus [19] was Active. The Retention time in experiment [13] was 4.1 min.
